Results reported in patent publication US20070128217A1 (priority 2003, published 2007).

How the values were obtained:
[1] = system: antibodies in sera from SARS patients (sera 1a, 1b, 2, 6, 37, 62, London, SARS-yellow, SARS-green); assay type: binding, human; set-up: Binding of serum 6 to linear peptides of protein X1 of SARS-CoV Urbani / Binding of serum 37 to linear peptides of protein X1 of SARS-CoV Urbani / Binding of serum 6 to looped/cyclic peptide (PEPSCAN-ELISA) / Binding of serum 37 to looped/cyclic peptide (PEPSCAN-ELISA) / Binding of serum 37 to looped/cyclic peptides of protein X1 of SARS-CoV Urbani / Binding of serum 6 to linear peptides of protein X2 / Binding of serum 37 to linear peptides of protein X2 / Binding of serum 37 to looped/cyclic peptides of protein X2 of SARS-CoV Urbani / Binding of serum 6 to linear peptides of protein M of SARS-CoV Urbani / Binding of serum 37 to linear peptides of protein M of SARS-CoV Urbani / Binding of serum 6 to looped/cyclic peptides of protein M of SARS-CoV Urbani / Binding of serum 37 to looped/cyclic peptides of protein M of SARS-CoV Urbani / Binding of serum 6 to linear peptides of protein X3 of SARS-CoV Urbani / Binding of serum 37 to linear peptides of protein X3 of SARS-CoV Urbani / Binding of serum 37 to looped/cyclic peptides of protein X3 of SARS-CoV Urbani / Binding of serum 6 to linear peptides of protein X4 of SARS-CoV Urbani / Binding of serum 37 to linear peptides of protein X4 of SARS-CoV Urbani / Binding of serum 37 to looped/cyclic peptides of protein X4 of SARS-CoV Urbani / Binding of serum 6 to linear peptides of protein X5 of SARS-CoV Urbani / Binding of serum 37 to linear peptides of protein X5 of SARS-CoV Urbani / Binding of serum 37 to looped/cyclic peptides of protein X5 of SARS-CoV Urbani / Binding of serum 6 to linear peptides of protein N of SARS-CoV Urbani / Binding of serum 37 to linear peptides of protein N of SARS-CoV Urbani / Binding of serum 6 to linear peptide (PEPSCAN-ELISA) / Binding of serum 1a to looped/cyclic peptides of protein N of SARS-CoV Urbani / Binding of serum 1b to looped/cyclic peptides of protein N of SARS-CoV Urbani / Binding of serum 2 to looped/cyclic peptides of protein N of SARS-CoV Urbani / Binding of serum 6 to looped/cyclic peptides of protein N of SARS-CoV Urbani / Binding of serum 37 to looped/cyclic peptides of protein N of SARS-CoV Urbani / Binding of serum 62 to looped/cyclic peptides of protein N of SARS-CoV Urbani / Binding of serum London to looped/cyclic peptides of protein N of SARS-CoV Urbani / Binding of serum SARS-green to looped/cyclic peptides of protein N of SARS-CoV Urbani: unit not given here
[2] = system: control sera (pooled serum of ten healthy LUMC hospital workers; commercial negative donor pooled serum from the Dutch bloodbank); assay type: binding, human; set-up: Binding of Control serum LUMC to linear peptides / Binding of Control serum Blood-bank to linear peptides / Binding of Control serum LUMC to looped peptides / Binding of Control Serum Blood-Bank to Looped peptides / Binding of Control serum LUMC to linear peptides of the protein M of SARS-CoV Urbani / Binding of Control serum Blood-bank to linear peptides of the protein M of SARS-CoV Urbani / Binding of Control serum LUMC to looped peptides of the protein M of SARS-CoV Urbani / Binding of Control Serum Blood-Bank to Looped peptides of the protein M of SARS-CoV Urbani: unit not given here
[3] = system: rabbit serum obtained by immunizing a rabbit with the SARS-CoV strain Frankfurt 1; assay type: binding; set-up: Binding of a rabbit serum to linear peptides / Binding of a rabbit serum to looped peptides / Rabbit serum linear peptides / Rabbit serum looped peptides / Binding of a rabbit serum to linear peptides of protein N of SARS-CoV Urbani (Rabbit serum linear peptides) / Binding of a rabbit serum to looped/cyclic peptides of protein N of SARS-CoV Urbani (Rabbit serum looped peptides): unit not given here
[4] = system: recombinant human anti-SARS-CoV antibody 03-018; assay type: binding; set-up: Binding of antibody 03-018 to linear peptides of the N protein of SARS-CoV Urbani / Binding of antibody 03-018 to looped/cyclic peptides of the N protein of SARS-CoV Urbani: unit not given here

GSRGGSQASSRSSSR
Binding of serum 1a to linear peptide (PEPSCAN-ELISA) [1]: 0.3
Binding of serum 1a to looped/cyclic peptides of protein N of SARS-CoV Urbani [1]: 0.6
Binding of serum 1b to linear peptide (PEPSCAN-ELISA) [1]: 0.1
Binding of serum 1b to looped/cyclic peptides of protein N of SARS-CoV Urbani [1]: 0.8
Binding of serum 2 to linear peptide (PEPSCAN-ELISA) [1]: 0.3
Binding of serum 2 to looped/cyclic peptides of protein N of SARS-CoV Urbani [1]: 0.7
Binding of serum 6 to linear peptide (PEPSCAN-ELISA) [1]: 0.4
Binding of serum 6 to looped/cyclic peptides of protein N of SARS-CoV Urbani [1]: 0.5
Binding of serum 37 to linear peptide (PEPSCAN-ELISA) [1]: 0.7
Binding of serum 37 to looped/cyclic peptides of protein N of SARS-CoV Urbani [1]: 0.9
Binding of serum 62 to linear peptide (PEPSCAN-ELISA) [1]: 0.8
Binding of serum 62 to looped/cyclic peptides of protein N of SARS-CoV Urbani [1]: 0.7
Binding of serum London to linear peptide (PEPSCAN-ELISA) [1]: 0.5
Binding of serum London to looped/cyclic peptides of protein N of SARS-CoV Urbani [1]: 0.7
Binding of serum SARS-green to linear peptide (PEPSCAN-ELISA) [1]: 0.2
Binding of serum SARS-green to looped/cyclic peptides of protein N of SARS-CoV Urbani [1]: 1.2
Binding of serum SARS-yellow to linear peptide (PEPSCAN-ELISA) [1]: 0.8
Binding of serum SARS-yellow to looped/cyclic peptides of protein N of SARS-CoV Urbani [1]: 1.6
Binding of Control Serum Blood-Bank to Looped peptides [2]: 1.1
Binding of Control serum Blood-bank to linear peptides [2]: 0.7
Binding of Control serum LUMC to linear peptides [2]: 0.7
Binding of Control serum LUMC to looped peptides [2]: 0.7
Binding of a rabbit serum to linear peptides of protein N of SARS-CoV Urbani (Rabbit serum linear peptides) [3]: 0.3
Binding of a rabbit serum to looped/cyclic peptides of protein N of SARS-CoV Urbani (Rabbit serum looped peptides) [3]: 0.6
Binding of antibody 03-018 to linear peptides of the N protein of SARS-CoV Urbani [4]: 0.1
Binding of antibody 03-018 to looped/cyclic peptides of the N protein of SARS-CoV Urbani [4]: 0.2

GPEASLPYGANKEGI
Binding of serum 1a to linear peptides of protein N of SARS-CoV Urbani [1]: 0.3
Binding of serum 1a to looped/cyclic peptides of protein N of SARS-CoV Urbani [1]: 0.3
Binding of serum 1b to linear peptides of protein N of SARS-CoV Urbani [1]: 0.2
Binding of serum 1b to looped/cyclic peptides of protein N of SARS-CoV Urbani [1]: 0.2
Binding of serum 2 to linear peptides of protein N of SARS-CoV Urbani [1]: 0.3
Binding of serum 2 to looped/cyclic peptides of protein N of SARS-CoV Urbani [1]: 0.4
Binding of serum 6 to linear peptides of protein N of SARS-CoV Urbani [1]: 0.3
Binding of serum 6 to looped/cyclic peptides of protein N of SARS-CoV Urbani [1]: 0.2
Binding of serum 37 to linear peptides of protein N of SARS-CoV Urbani [1]: 0.8
Binding of serum 37 to looped/cyclic peptides of protein N of SARS-CoV Urbani [1]: 0.6
Binding of serum 62 to linear peptides of protein N of SARS-CoV Urbani [1]: 0.9
Binding of serum 62 to looped/cyclic peptides of protein N of SARS-CoV Urbani [1]: 0.5
Binding of serum London to linear peptides of protein N of SARS-CoV Urbani [1]: 0.6
Binding of serum London to looped/cyclic peptides of protein N of SARS-CoV Urbani [1]: 0.4
Binding of serum SARS-green to linear peptides of protein N of SARS-CoV Urbani [1]: 0.7
Binding of serum SARS-green to looped/cyclic peptides of protein N of SARS-CoV Urbani [1]: 0.5
Binding of serum SARS-yellow to linear peptides of protein N of SARS-CoV Urbani [1]: 0.6
Binding of serum SARS-yellow to looped/cyclic peptides of protein N of SARS-CoV Urbani [1]: 0.3
Binding of Control Serum Blood-Bank to Looped peptides [2]: 0.6
Binding of Control serum Blood-bank to linear peptides [2]: 0.9
Binding of Control serum LUMC to linear peptides [2]: 0.9
Binding of Control serum LUMC to looped peptides [2]: 0.8
Binding of a rabbit serum to linear peptides of protein N of SARS-CoV Urbani (Rabbit serum linear peptides) [3]: 0.1
Binding of a rabbit serum to looped/cyclic peptides of protein N of SARS-CoV Urbani (Rabbit serum looped peptides) [3]: 0.3
Binding of antibody 03-018 to linear peptides of the N protein of SARS-CoV Urbani [4]: 0.1
Binding of antibody 03-018 to looped/cyclic peptides of the N protein of SARS-CoV Urbani [4]: 0.2

MEVTPSGTWLTYHGA
Binding of serum 1a to linear peptides of protein N of SARS-CoV Urbani [1]: 0.3
Binding of serum 1a to looped/cyclic peptides of protein N of SARS-CoV Urbani [1]: 0.4
Binding of serum 1b to linear peptides of protein N of SARS-CoV Urbani [1]: 0.1
Binding of serum 1b to looped/cyclic peptides of protein N of SARS-CoV Urbani [1]: 0.3
Binding of serum 2 to linear peptides of protein N of SARS-CoV Urbani [1]: 0.1
Binding of serum 2 to looped/cyclic peptides of protein N of SARS-CoV Urbani [1]: 0.5
Binding of serum 6 to linear peptides of protein N of SARS-CoV Urbani [1]: 0.2
Binding of serum 6 to looped/cyclic peptides of protein N of SARS-CoV Urbani [1]: 0.3
Binding of serum 37 to linear peptides of protein N of SARS-CoV Urbani [1]: 0.6
Binding of serum 37 to looped/cyclic peptides of protein N of SARS-CoV Urbani [1]: 0.7
Binding of serum 62 to linear peptides of protein N of SARS-CoV Urbani [1]: 0.5
Binding of serum 62 to looped/cyclic peptides of protein N of SARS-CoV Urbani [1]: 0.8
Binding of serum London to linear peptides of protein N of SARS-CoV Urbani [1]: 0.5
Binding of serum London to looped/cyclic peptides of protein N of SARS-CoV Urbani [1]: 0.5
Binding of serum SARS-green to linear peptides of protein N of SARS-CoV Urbani [1]: 0.2
Binding of serum SARS-green to looped/cyclic peptides of protein N of SARS-CoV Urbani [1]: 0.5
Binding of serum SARS-yellow to linear peptides of protein N of SARS-CoV Urbani [1]: 0.7
Binding of serum SARS-yellow to looped/cyclic peptides of protein N of SARS-CoV Urbani [1]: 0.4
Control Serum Blood-Bank Looped peptides [2]: 0.7
Control serum Blood-bank linear peptides [2]: 0.8
Control serum LUMC linear peptides [2]: 0.6
Control serum LUMC looped peptides [2]: 0.8
Binding of a rabbit serum to linear peptides of protein N of SARS-CoV Urbani (Rabbit serum linear peptides) [3]: 0.1
Binding of a rabbit serum to looped/cyclic peptides of protein N of SARS-CoV Urbani (Rabbit serum looped peptides) [3]: 0.4
Binding of antibody 03-018 to linear peptides of the N protein of SARS-CoV Urbani [4]: 0.1
Binding of antibody 03-018 to looped/cyclic peptides of the N protein of SARS-CoV Urbani [4]: 0.2

NGARPKQRRPQGLPN
Binding of serum 1a to linear peptides of protein N of SARS-CoV Urbani [1]: 0.2
Binding of serum 1a to looped/cyclic peptides of protein N of SARS-CoV Urbani [1]: 0.3
Binding of serum 1b to linear peptides of protein N of SARS-CoV Urbani [1]: 0.1
Binding of serum 1b to looped/cyclic peptides of protein N of SARS-CoV Urbani [1]: 0.2
Binding of serum 2 to linear peptides of protein N of SARS-CoV Urbani [1]: 0.2
Binding of serum 2 to looped/cyclic peptides of protein N of SARS-CoV Urbani [1]: 0.3
Binding of serum 6 to linear peptides of protein N of SARS-CoV Urbani [1]: 0.1
Binding of serum 6 to looped/cyclic peptides of protein N of SARS-CoV Urbani [1]: 0.4
Binding of serum 37 to linear peptides of protein N of SARS-CoV Urbani [1]: 0.7
Binding of serum 37 to looped/cyclic peptides of protein N of SARS-CoV Urbani [1]: 0.6
Binding of serum 62 to linear peptides of protein N of SARS-CoV Urbani [1]: 0.5
Binding of serum 62 to looped/cyclic peptides of protein N of SARS-CoV Urbani [1]: 0.5
Binding of serum London to linear peptides of protein N of SARS-CoV Urbani [1]: 0.4
Binding of serum London to looped/cyclic peptides of protein N of SARS-CoV Urbani [1]: 0.5
Binding of serum SARS-green to linear peptides of protein N of SARS-CoV Urbani [1]: 0.3
Binding of serum SARS-green to looped/cyclic peptides of protein N of SARS-CoV Urbani [1]: 0.4
Binding of serum SARS-yellow to linear peptides of protein N of SARS-CoV Urbani [1]: 0.5
Binding of serum SARS-yellow to looped/cyclic peptides of protein N of SARS-CoV Urbani [1]: 0.4
Binding of Control Serum Blood-Bank to Looped peptides [2]: 0.6
Binding of Control serum Blood-bank to linear peptides [2]: 0.7
Binding of Control serum LUMC to linear peptides [2]: 0.6
Binding of Control serum LUMC to looped peptides [2]: 0.6
Binding of a rabbit serum to linear peptides of protein N of SARS-CoV Urbani (Rabbit serum linear peptides) [3]: 0.1
Binding of a rabbit serum to looped/cyclic peptides of protein N of SARS-CoV Urbani (Rabbit serum looped peptides) [3]: 0.3
Binding of antibody 03-018 to linear peptides of the N protein of SARS-CoV Urbani [4]: 0.1
Binding of antibody 03-018 to looped/cyclic peptides of the N protein of SARS-CoV Urbani [4]: 0.3
